Laboratory results taken from patent US8569327B2, “Phenanthroindolizidine derivative and NFκB inhibitor containing same as active ingredient” (Kabushiki Kaisha Yakult Honsha, priority 2008, dated 2013).
Marks after values point to notes of the source that are not given here.

Legend:
[1] = test system: human colon cancer SW480 cells; assay: Inhibitory action on the proliferation of SW480 cells; format: cell-based; conditions: 48 hours, TetraColor ONE; for IC50: Homo sapiens, SW480
In short: (§1)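 Cells seeded overnight (SW480 2000/well in 10% FBS/RPMI1640; A549, HT-29 1000/well in 10% FBS DMEM or DMEM F12 HAM), then compound-treated at 37 °C, 5% CO2 for 48 h (SW480) or 96 h (A549, HT-29). Viable cells counted by TetraColor ONE; IC50 for 50% proliferation inhibition.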

[2] = test system: human non-small cell lung cancer A549 cells; assay: Inhibitory action on the proliferation of A549 cells; format: cell-based; conditions: 96 hours, TetraColor ONE; for IC50: Homo sapiens, A549
In short: as §1

SV40 promoter = SV40 promoter activity, luciferase assay in SW480/SV40-Luc cells; format: cell-based, human; conditions: for SV40 promoter inhibitory activity IC50: SW480/SV40-Luc cells, luciferase; for IC50: Homo sapiens, SW480, read-out: SV40 promoter inhibitory activity IC50
In short: (§2)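 Stable SW480 colon cancer lines carried luciferase driven by a 5× NFκB response element or by the SV40 promoter. Compound was added 1 h before 50 ng/mL TNFα, followed by 4 h culture at 37 °C; luminescence was read and IC50 taken as 50% inhibition of induced luciferase expression.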

[3] = test system: mouse fibrosarcoma Meth A cells; assay: Antitumor effect in mice transplanted with mouse fibrosarcoma Meth A cells; format: in vivo; conditions: intravenous on days 1, 5, 9, tumor weight day 21, BALB/c mice
Description: The antitumor effect of the phenanthroindolizidine alkaloid compound of the present invention in vivo was studied using mice transplanted with mouse fibrosarcoma Meth A cells. Meth A cells were transplanted subcutaneously in the inguinal region of male 7-week-old BALB/c mice (2.5×10^5 cells/mouse). Subsequently, on days 1, 5, and 9, the compound of the present invention was intravenously administered. To a control group, physiological saline, a solvent, was administered. On day 21 after the cell transplantation, tumor was excised and measured for its weight, and subsequently a tumor growth-inhibition rate IR (%) was obtained by the following formula. Tumor growth-inhibition rate IR (%)=(1−the weight of the tumor in an administration group/the weight of the tumor in a control group)×100

[4] = test system: human colon cancer HT-29 cells; assay: Inhibitory action on the proliferation of HT-29 cells; format: cell-based; conditions: 96 hours, TetraColor ONE; for IC50: Homo sapiens, HT-29
In short: as §1

NFκB = assay: Inhibitory action on the NFκB activity, luciferase assay in SW480/NRE-Luc cells; format: cell-based, human; conditions: for NFκB inhibitory activity IC50: SW480/NRE-Luc cells, compound 1 h then 50 ng/mL TNFα 4 h, luciferase; for IC50: Homo sapiens, SW480, read-out: NFκB inhibitory activity IC50
In short: as §2

[5] = test system: mice transplanted with mouse fibrosarcoma Meth A cells; assay: Animal toxicity test; format: in vivo; conditions: intravenous days 1, 5, 9, observed three weeks
Description: Also, the toxicity of known phenanthroindolizidine alkaloid compounds, namely (12aS,13S)-6,7-dimethoxy-9,10,11,12,12a,13-hexahydro-9a-aza-cyclopenta[b]triphenylene-3,13-diol (known compound 1; refer to WO01/023384) and (12aS,13S)-3,6,7-trimethoxy-9,10,11,12,12a,13-hexahydro-9a-aza-cyclopenta[b]triphenylene-13-ol (known compound 2; refer to Planta Med., 2002, 68: 186-188), was simultaneously studied. To a control group, a physiological saline solution, a solvent, was administered. As a result, as shown in the following Tables 35 and 36, all the mice survived in a group administered with the compound of the present invention.

Solubility of the salts = assay: Solubility of the salts
Excerpt: In in vivo studies, each compound was used in the form of a salt.

[6] = test system: human colon cancer HCT116 cells; assay: Antitumor effect in mice transplanted with human colon cancer HCT116 cells; format: in vivo, mouse; conditions: intraperitoneal days 1-5 and 8-12, tumor weight day 21, BALB/c nude mice
Excerpt: The antitumor effect of the phenanthroindolizidine alkaloid compound of the present invention in vivo was studied using mice transplanted with human colon cancer HCT116 cells. HCT116 cells were transplanted subcutaneously in the inguinal region of male 6-week-old BALB/c nude mice (2×10^6 cells/mouse). On days 1 to 5 and on days 8 to 12 after the time at which the estimated tumor volume obtained by ½ab^2 (a and b indicate the major axis and the minor axis of tumor, respectively) reached approximately 100 mm^3 (day 0), the compound of the present invention was administered (intraperitoneal administration). To a control group, a 5% glucose solution, a solvent, was administered. On day 21, tumor was excised and measured for its weight, and subsequently a tumor proliferation-inhibition rate IR (%) was calculated.

[7] = aqueous solution of 5% glucose, saline or isotonic

Row | Compound | SW480 proliferation inhibitory action IC50 [1] [ng/mL] | A549 proliferation inhibitory action IC50 [2] [ng/mL] | SV40 promoter inhibitory activity IC50 (SV40 promoter) [ng/mL] | Tumor growth inhibition rate IR ([3]; total dose 25 mg/kg) | Tumor growth inhibition rate IR ([3]; total dose 50 mg/kg) | HT-29 proliferation inhibitory action IC50 [4] [ng/mL] | NFκB inhibitory activity IC50 (NFκB) [ng/mL] | Mortality rate ([5]; total dose 25 mg/kg) | Mortality rate ([5]; total dose 50 mg/kg) | IC50 [1] [ng/mL] | IC50 [2] [ng/mL] | IC50 (SV40 promoter) [ng/mL] | IC50 [4] [ng/mL] | IC50 (NFκB) [ng/mL] | solubility (Solubility of the salts; [7]) [mg/mL] | Tumor growth inhibition rate IR ([6]; total dose 100 mg/kg) | solubility (Solubility of the salts; in an aqueous solution of 5% glucose, salt form) [mg/mL] | Tumor growth inhibition rate IR ([6]; total dose 200 mg/kg) | Tumor growth inhibition rate IR ([6]; total dose 50 mg/kg)
1 | COC(=O)CCC(=O)Oc1ccc2c3c(c4cc(OC)c(OC)cc4c2c1)CN1CCC[C@H]1[C@H]3O.Cl [Compound 16, succinic acid(12aS,13S)-13-hydroxy-6,7-dimethoxy-9,10,11,12,12a,13-hexahydro-9a-aza-cyclopenta[b]triphenylene-3-yl ester methyl ester hydrochloride] | 0.76 | 0.59 | >100 | 48.8* % | 39.1% | 0.17 | 0.37 |  |  |  |  |  |  |  |  |  |  |  | 
2 | COC(=O)Oc1ccc2c3c(c4cc(OC)c(OC)cc4c2c1)CN1CCC[C@H]1[C@H]3O.Cl [Compound 17, carbonic acid(12aS,13S)-13-hydroxy-6,7-dimethoxy-9,10,11,12,12a,13-hexahydro-9a-aza-cyclopenta[b]triphenylene-3-yl ester methyl ester hydrochloride] | 0.63 | 0.53 | >100 | 54.2* % | 50.0% | 0.067 | 0.83 |  |  |  |  |  |  |  |  |  |  |  | 
3 | COc1cc2c3c(c4ccc(OC(=O)c5ccco5)cc4c2cc1OC)[C@H](O)[C@@H]1CCCN1C3.Cl [Compound 20, furan-2-carboxylic acid(12aS,13S)-13-hydroxy-6,7-dimethoxy-9,10,11,12,12a,13-hexahydro-9a-aza-cyclopenta[b]triphenylene-3-yl ester hydrochloride] | 0.67 | 0.42 | >100 | 36.7% | 53.0* % | 0.76 | 0.46 | 0/5 | 0/5 |  |  |  |  |  |  |  |  |  | 
4 | COc1cc2c3c(c4cccc(O)c4c2cc1OC)C[C@@H]1CCCN1C3.Cl [Compound 40, (S)-6,7-dimethoxy-9,10,11,12,12a,13-hexahydro-9a-aza-cyclopenta[b]triphenylene-4-ol hydrochloride] |  |  |  | 25.8% | 45.1* % |  |  | 0/5 | 0/5 | 4 | 3.3 | > 1000 | 67.9 | 2.4 |  |  |  |  | 
5 | COc1cc2c3c(c4cccc(O)c4c2cc1OC)[C@H](O)[C@@H]1CCCN1C3.CS(=O)(=O)O [Compound 43, (12aS,13S)-6,7-dimethoxy-9,10,11,12,12a,13-hexahydro-9a-aza-cyclopenta[b]triphenylene-4,13-diol methanesulfonate] |  |  |  |  |  |  |  |  |  | 6.2 | 4.4 | > 1000 | 100 | 2.7 | 11.2 |  |  |  | 
6 | COc1cc2c3c(c4ccc(F)cc4c2cc1OC)C[C@@H]1CCCN1C3.CS(=O)(=O)O [Compound 44, (S)-3-fluoro-6,7-dimethoxy-9,10,11,12,12a,13-hexahydro-9a-aza-cyclopenta[b]triphenylene methanesulfonate] |  |  |  |  |  |  |  |  |  | 64.9 | 6 | > 1000 | 12.8 | 36.8 | 10.3 | 30.7** % |  |  | 
7 | COc1cc2c3c(c4ccc(OC(C)=O)cc4c2cc1OC)C[C@@H]1CCCN1C3.CS(=O)(=O)O [Compound 45, acetic acid(S)-6,7-dimethoxy-9,10,11,12,12a,13-hexahydro-9a-aza-cyclopenta[b]triphenylene-3-yl ester methanesulfonate] | 0.76 | 0.64 | >100 |  |  | 1.5 | 0.41 |  |  |  |  |  |  |  |  |  | 9.7 | 34.7** % | 
8 | COC(=O)CCC(=O)Oc1ccc2c3c(c4cc(OC)c(OC)cc4c2c1)CN1CCC[C@H]1C3.CS(=O)(=O)O [Compound 46, succinic acid(S)-6,7-dimethoxy-9,10,11,12,12a,13-hexahydro-9a-aza-cyclopenta[b]triphenylene-3-yl ester methyl ester methanesulfonate] | 0.36 | 1.2 | >1000 |  |  | 2.1 | 0.13 |  |  |  |  |  |  |  |  |  |  | 34.6** % | 
9 | COc1cc2c3c(c4ccc(NC(C)=O)cc4c2cc1OC)C[C@@H]1CCCN1C3.CS(=O)(=O)O [Compound 56, N-((S)-6,7-dimethoxy-9,10,11,12,12a,13-hexahydro-9a-aza-cyclopenta[b]triphenylene-3-yl)-acetamide methanesulfonate] |  |  |  |  |  |  |  |  |  | 4.8 | 2.2 | > 10 | 2.4 | 2.9 |  | 68.9** % |  |  | 39.1** %
